From PMC9848300, “Discovery of novel enasidenib analogues targeting inhibition of mutant isocitrate dehydrogenase 2 as antileukaemic agents” (Journal of Enzyme Inhibition and Medicinal Chemistry, 2023)

Legend:
SK-MEL-5 = test: NCI 60 antitumor screening (single dose / five doses); format: cell-based; details: Homo sapiens; for inhibition at 10 µM: SK-MEL-5 (melanoma), single dose 10 μM, read-out: Growth inhibition percentage (GI %)
OVCAR-3 = test: NCI 60 antitumor screening (single dose); format: cell-based; details: Homo sapiens; OVCAR-3 (ovarian cancer), single dose 10 μM; read-out: Growth inhibition percentage (GI %)
Method in brief: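 Compounds were tested at a single 10 μM dose against the NCI 60-cell-line panel (nine tumour types), in triplicate. Growth was recorded as percent growth (G%) of treated cells, and growth inhibition was taken as GI% = 100 − G%.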

NCI-H460 = test: NCI 60 antitumor screening (single dose); format: cell-based; details: Homo sapiens; NCI-H460 (non-small cell lung cancer), single dose 10 μM; read-out: Growth inhibition percentage (GI %)
Method in brief: (§1)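 Single-dose NCI protocol, 10 μM, triplicate. Readout G%; GI% = 100 − G%.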

SF-268 = test: NCI 60 antitumor screening (single dose); format: cell-based; details: Homo sapiens; SF-268 (CNS cancer), single dose 10 μM; read-out: Growth inhibition percentage (GI %)
Method in brief: as §1

IGROV1 = test: NCI 60 antitumor screening (single dose / five doses); format: cell-based; details: Homo sapiens, IGROV-1; for inhibition at 10 µM: IGROV1 (ovarian cancer), single dose 10 μM, read-out: Growth inhibition percentage (GI %)
MOLT-4 = test: as above; format: cell-based; details: Homo sapiens; MOLT-4 (leukaemia), single dose 10 μM; read-out: Growth inhibition percentage (GI %)
MDA-MB-231/ATCC = test: as above; format: cell-based; details: Homo sapiens; for inhibition at 10 µM: MDA-MB-231/ATCC (breast cancer), single dose 10 μM, read-out: Growth inhibition percentage (GI %)
ACHN = test: as above; format: cell-based; details: Homo sapiens; for inhibition at 10 µM: ACHN (renal cancer), single dose 10 μM, read-out: Growth inhibition percentage (GI %)
MDA-MB-468 = test: as above; format: cell-based; details: Homo sapiens; for inhibition at 10 µM: MDA-MB-468 (breast cancer), single dose 10 μM, read-out: Growth inhibition percentage (GI %)
786-0 = test: as above; format: cell-based; details: Homo sapiens; for inhibition at 10 µM: 786-0, 786-0 (renal cancer), single dose 10 μM, read-out: Growth inhibition percentage (GI %)
SR = test: as above; format: cell-based; details: Homo sapiens; SR (leukaemia), single dose 10 μM; read-out: Growth inhibition percentage (GI %)
UACC-62 = test: as above; format: cell-based; details: Homo sapiens; for inhibition at 10 µM: UACC-62 (melanoma), single dose 10 μM, read-out: Growth inhibition percentage (GI %)
MALME-3M = test: as above; format: cell-based; details: Homo sapiens; for inhibition at 10 µM: MALME-3M (melanoma), single dose 10 μM, read-out: Growth inhibition percentage (GI %)
A498 = test: as above; format: cell-based; details: Homo sapiens; for inhibition at 10 µM: A498 (renal cancer), single dose 10 μM, read-out: Growth inhibition percentage (GI %)
MDA-MB-435 = test: as above; format: cell-based; details: Homo sapiens; for inhibition at 10 µM: MDA-MB-435 (melanoma), single dose 10 μM, read-out: Growth inhibition percentage (GI %)
SN 12C = test: as above; format: cell-based; details: Homo sapiens, SN12C; for inhibition at 10 µM: SN 12C (renal cancer), single dose 10 μM, read-out: Growth inhibition percentage (GI %)
SK-MEL-28 = test: as above; format: cell-based; details: Homo sapiens; for inhibition at 10 µM: SK-MEL-28 (melanoma), single dose 10 μM, read-out: Growth inhibition percentage (GI %)
CCRF-CEM = test: as above; format: cell-based; details: Homo sapiens; CCRF-CEM (leukaemia), single dose 10 μM; read-out: Growth inhibition percentage (GI %)
SW-620 = test: as above; format: cell-based, human; details: Homo sapiens; for inhibition at 10 µM: SW-620 (colon cancer), single dose 10 μM, read-out: Growth inhibition percentage (GI %)
UACC-257 = test: as above; format: cell-based; details: Homo sapiens; for inhibition at 10 µM: UACC-257 (melanoma), single dose 10 μM, read-out: Growth inhibition percentage (GI %)
COLO 205 = test: as above; format: cell-based; details: Homo sapiens; for inhibition at 10 µM: COLO 205 (colon cancer), single dose 10 μM, read-out: Growth inhibition percentage (GI %)
K-562 = test: as above; format: cell-based; details: Homo sapiens, K562; for inhibition at 10 µM: K-562 (leukaemia), single dose 10 μM, read-out: Growth inhibition percentage (GI %)
SK-MEL-2 = test: as above; format: cell-based; details: Homo sapiens; for inhibition at 10 µM: SK-MEL-2 (melanoma), single dose 10 μM, read-out: Growth inhibition percentage (GI %)
HT29 = test: as above; format: cell-based, human; details: Homo sapiens; for inhibition at 10 µM: HT-29, HT29 (colon cancer), single dose 10 μM, read-out: Growth inhibition percentage (GI %)
HOP-92 = test: as above; format: cell-based; details: Homo sapiens; for inhibition at 10 µM: HOP-92 (non-small cell lung cancer), single dose 10 μM, read-out: Growth inhibition percentage (GI %)
SF-539 = test: as above; format: cell-based; details: Homo sapiens; for inhibition at 10 µM: SF-539 (CNS cancer), single dose 10 μM, read-out: Growth inhibition percentage (GI %)
EKVX = test: as above; format: cell-based; details: Homo sapiens; for inhibition at 10 µM: EKVX (non-small cell lung cancer), single dose 10 μM, read-out: Growth inhibition percentage (GI %)
UO-31 = test: as above; format: cell-based; details: Homo sapiens; for inhibition at 10 µM: UO-31 (renal cancer), single dose 10 μM, read-out: Growth inhibition percentage (GI %)

## Fc1cccc(Cl)c1/C=N/Nc1nc(N/N=C/c2c(F)cccc2Cl)nc(N2CCCCC2)n1 [compound 7l, 2,4-Bis[(E)-2-[(2-Chloro-6-fluorophenyl)methylidene]hydrazin-1-yl]-6-(piperidin-1-yl)-1,3,5-triazine]
SK-MEL-5
  inhibition at 10 µM: 41%
SK-MEL-5; SK-MEL-5, five doses (0.01–100 μM), read-out: GI50
  GI50: 1880 nM
OVCAR-3
  inhibition at 10 µM: 77.3%
NCI-H460
  inhibition at 10 µM: 80.1%
SF-268
  inhibition at 10 µM: 63.3%
IGROV1
  inhibition at 10 µM: 82.3%
IGROV1; IGROV1, five doses (0.01–100 μM), read-out: GI50
  GI50: 3160 nM
MOLT-4
  inhibition at 10 µM: 86.3%
MDA-MB-231/ATCC; MDA-MB-231/ ATCC, five doses (0.01–100 μM), read-out: GI50
  GI50: 7650 nM
MDA-MB-231/ATCC
  inhibition at 10 µM: 57.9%
ACHN
  inhibition at 10 µM: 95.8%
ACHN; ACHN, five doses (0.01–100 μM), read-out: GI50
  GI50: 3040 nM
MDA-MB-468
  inhibition at 10 µM: 114%
MDA-MB-468; MDA-MB-468, five doses (0.01–100 μM), read-out: GI50
  GI50: 1860 nM
786-0
  inhibition at 10 µM: 71.7%
786-0; 786-0, five doses (0.01–100 μM), read-out: GI50
  GI50: 3440 nM
SR
  inhibition at 10 µM: 83.9%
UACC-62
  inhibition at 10 µM: 81.7%
UACC-62; UACC-62, five doses (0.01–100 μM), read-out: GI50
  GI50: 2350 nM
MALME-3M
  inhibition at 10 µM: 95.8%
MALME-3M; MALME-3M, five doses (0.01–100 μM), read-out: GI50
  GI50: 2210 nM
A498
  inhibition at 10 µM: 47.2%
A498; A498, five doses (0.01–100 μM), read-out: GI50
  GI50: 2400 nM
MDA-MB-435
  inhibition at 10 µM: 96.2%
MDA-MB-435; MDA-MB-435, five doses (0.01–100 μM), read-out: GI50
  GI50: 2860 nM
SN 12C
  inhibition at 10 µM: 76.8%
SN 12C; SN 12C, five doses (0.01–100 μM), read-out: GI50
  GI50: 2850 nM
SK-MEL-28
  inhibition at 10 µM: 55.1%
SK-MEL-28; SK-MEL-28, five doses (0.01–100 μM), read-out: GI50
  GI50: 3410 nM
CCRF-CEM
  inhibition at 10 µM: 77.7%
SW-620; SW-620, SW-620, five doses (0.01–100 μM), read-out: GI50
  GI50: 3510 nM
SW-620
  inhibition at 10 µM: 82.8%
UACC-257
  inhibition at 10 µM: 88.3%
UACC-257; UACC-257, five doses (0.01–100 μM), read-out: GI50
  GI50: 2390 nM
COLO 205
  inhibition at 10 µM: 117%
COLO 205; COLO 205, five doses (0.01–100 μM), read-out: GI50
  GI50: 1780 nM
K-562
  inhibition at 10 µM: 67.7%
K-562; K-562, five doses (0.01–100 μM), read-out: GI50
  GI50: 3080 nM
SK-MEL-2
  inhibition at 10 µM: 126%
SK-MEL-2; SK-MEL-2, five doses (0.01–100 μM)
  GI50: 1690 nM
HT29; HT-29, HT29, five doses (0.01–100 μM), read-out: GI50
  GI50: 2900 nM
HT29
  inhibition at 10 µM: 96.5%
HOP-92
  inhibition at 10 µM: 101%
HOP-92; HOP-92, five doses (0.01–100 μM), read-out: GI50
  GI50: 1470 nM
SF-539
  inhibition at 10 µM: 43.8%
SF-539; SF-539, five doses (0.01–100 μM), read-out: GI50
  GI50: 7650 nM
EKVX
  inhibition at 10 µM: 86.2%
EKVX; EKVX, five doses (0.01–100 μM), read-out: GI50
  GI50: 1540 nM
UO-31
  inhibition at 10 µM: 91%
UO-31; UO-31, five doses (0.01–100 μM), read-out: GI50
  GI50: 2010 nM

## O=C1Nc2ccc(Cl)cc2/C1=N\Nc1nc(N/N=C2/C(=O)Nc3ccc(Cl)cc32)nc(N2CCOCC2)n1 [compound 8b, (3E)-5-Chloro-3-[2–(4-{2-[(3E)-5-chloro-2-oxo-2,3-dihydro-1H-indol-3-ylidene]hydrazin-1-yl}6-(morpholin-4-yl)-1,3,5-triazin-2-yl)hydrazin-1-ylidene]-2,3-dihydro-1H-indol-2-one]
SK-MEL-5
  inhibition at 10 µM: 53.9%
OVCAR-3
  inhibition at 10 µM: 47.3%
NCI-H460
  inhibition at 10 µM: 11.8%
SF-268
  inhibition at 10 µM: 50.9%
IGROV1
  inhibition at 10 µM: 45%
MOLT-4
  inhibition at 10 µM: 37.5%
MDA-MB-231/ATCC
  inhibition at 10 µM: 63.7%
ACHN
  inhibition at 10 µM: 25.5%
MDA-MB-468
  inhibition at 10 µM: 76.4%
786-0
  inhibition at 10 µM: 26.3%
SR
  inhibition at 10 µM: 70.8%
UACC-62
  inhibition at 10 µM: 48.4%
MALME-3M
  inhibition at 10 µM: 43.6%
A498
  inhibition at 10 µM: 78.4%
MDA-MB-435
  inhibition at 10 µM: 36.5%
SN 12C
  inhibition at 10 µM: 56.1%
SK-MEL-28
  inhibition at 10 µM: 45%
CCRF-CEM
  inhibition at 10 µM: 79.8%
SW-620
  inhibition at 10 µM: 25.7%
UACC-257
  inhibition at 10 µM: 18%
COLO 205
  inhibition at 10 µM: 51.3%
K-562
  inhibition at 10 µM: 67.1%
SK-MEL-2
  inhibition at 10 µM: 34.7%
HT29
  inhibition at 10 µM: 8.9%
HOP-92
  inhibition at 10 µM: 74%
SF-539
  inhibition at 10 µM: 84%
EKVX
  inhibition at 10 µM: 14.8%
UO-31
  inhibition at 10 µM: 21.4%
